Assay results as given in patent US20220409620A1, “REDUCING IMMUNOGENICITY TO PEGLOTICASE” (Horizon Pharma Rheumatology LLC, priority 2016, published 2022).

Tested on: adult patients with uncontrolled gout
Assay: Health Assessment Questionnaire (HAQ-DI, HAQ pain, HAQ health), open-label study
Assay type: in vivo, human
Parameters: key to HAQ-Health, Observed, Median / HAQ-Health, Change from Baseline, Median: 0-100 scale; 0 = very well, 100 = very poor health; key to HAQ-DI, Observed, Median / HAQ-DI, Change from Baseline, Median: HAQ-DI scale 0-3; 0 = no difficulty, 3 = unable to do
Settings: mITT Population
Method: Quality-of-Life Assessment: The HAQ was administered at the Screening and Week −4 or week −6 (prior to the first dose of MTX) Visits during the MTX Run-in Period for the open-label and randomized studies, respectively; prior to pegloticase infusion at the Day 1 and Weeks 14, 24 and 36 Visits or at the Day 1 and weeks 6, 14, 20, 24, 30, 36, and 44 visits during the Pegloticase+IMM Period for the open-label and randomized studies, respectively; at the End of Pegloticase Infusions Visit (if applicable), the Week 52/End of Study/Early Termination Visit and the Post Treatment Periods 3 and 6 Month Follow-up Visits (open-label study). The HAQ-DI is a self-report functional status instrument that can be filled out by a subject in less than 5 minutes and requires 1 minute to score. The index measures disability over the past week by asking a total of 20 questions covering 8 domains of function: dressing and grooming, arising, eating, walking, hygiene, reach, grip, and usual activities. There are at least 2 questions in each domain and the 8 domains represent a comprehensive set of functional activities. The HAQ-DI is calculated by scoring the answer to each question in the HAQ from 0 to 3, with 0 representing the ability to do without any difficulty, and 3 representing inability to do. Any activity that requires assistance from another individual or requires the use of an assistive device raises a 0 or 1 score to a 2. The highest score for each of the 8 domains is summed (range from 0 to 24) and divided by 8 to yield, on a scale with 25 possible values, a Functional Disability Index with a range from 0 to 3. The disability index is based on the number of domains answered and is computed only if the subject completes answers to at least 6 domains. The HAQ pain scale asks subjects to record how much pain they have had in the past week on a scale of 0 to 100, where zero represents “no pain” and 100 represents “severe pain”. The HAQ health scale is a measure of overall health. Subjects are asked to rate how well they are doing on a score of 0 to 100, where zero represents “very well” and 100 represents “very poor” health.

[1] = Week 52/ET, Methotrexate Baseline
[2] = Week 52/ET, Pegloticase Baseline

Substance: pegloticase
- HAQ-Health, Observed, Mean (SD) (Week 14, Pegloticase Baseline): 36.6 (33.87)
- HAQ-Health, Observed, Median (Week 14, Pegloticase Baseline): 16.5
- HAQ-Pain, Change from Baseline, Mean (SD) (Week 14, Pegloticase Baseline): −16.0 (30.65)
- HAQ-Pain, Change from Baseline, Median (Week 14, Pegloticase Baseline): −12.5
- HAQ-Pain, Observed, Mean (SD) (Week 14, Pegloticase Baseline): 27.1 (26.25)
- HAQ-Pain, Observed, Median (Week 14, Pegloticase Baseline): 15.0
- HAQ-DI, Change from Baseline, Mean (SD) (Week 24, Methotrexate Baseline): −0.5 (0.74)
- HAQ-DI, Change from Baseline, Median (Week 24, Methotrexate Baseline): −0.1
- HAQ-DI, Observed, Mean (SD) (Week 24, Methotrexate Baseline): 0.2 (0.33)
- HAQ-DI, Observed, Median (Week 24, Methotrexate Baseline): 0.1
- HAQ-Health, Change from Baseline, Mean (SD) (Week 24, Methotrexate Baseline): −33.2 (36.01)
- HAQ-Health, Change from Baseline, Median (Week 24, Methotrexate Baseline): −40.0
- HAQ-Health, Observed, Mean (SD) (Week 24, Methotrexate Baseline): 21.4 (26.65)
- HAQ-Health, Observed, Median (Week 24, Methotrexate Baseline): 10.0
- HAQ-Pain, Change from Baseline, Mean (SD) (Week 24, Methotrexate Baseline): −19.2 (35.13)
- HAQ-Pain, Change from Baseline, Median (Week 24, Methotrexate Baseline): −10.0
- HAQ-Pain, Observed, Mean (SD) (Week 24, Methotrexate Baseline): 25.4 (27.50)
- HAQ-Pain, Observed, Median (Week 24, Methotrexate Baseline): 20.0
- HAQ-DI, Change from Baseline, Mean (SD) (Week 24, Pegloticase Baseline): −0.6 (0.85)
- HAQ-DI, Change from Baseline, Median (Week 24, Pegloticase Baseline): −0.1
- HAQ-DI, Observed, Mean (SD) (Week 24, Pegloticase Baseline): 0.2 (0.33)
- HAQ-DI, Observed, Median (Week 24, Pegloticase Baseline): 0.1
- HAQ-Health, Change from Baseline, Mean (SD) (Week 24, Pegloticase Baseline): −19.7 (43.38)
- HAQ-Health, Change from Baseline, Median (Week 24, Pegloticase Baseline): −10.0
- HAQ-Health, Observed, Mean (SD) (Week 24, Pegloticase Baseline): 21.4 (26.65)
- HAQ-Health, Observed, Median (Week 24, Pegloticase Baseline): 10.0
- HAQ-Pain, Change from Baseline, Mean (SD) (Week 24, Pegloticase Baseline): −16.7 (38.53)
- HAQ-Pain, Change from Baseline, Median (Week 24, Pegloticase Baseline): −10.0
- HAQ-Pain, Observed, Mean (SD) (Week 24, Pegloticase Baseline): 25.4 (27.50)
- HAQ-Pain, Observed, Median (Week 24, Pegloticase Baseline): 20.0
- HAQ-DI, Change from Baseline, Mean (SD) (Week 36, Methotrexate Baseline): −0.5 (0.80)
- HAQ-DI, Change from Baseline, Median (Week 36, Methotrexate Baseline): 0.0
- HAQ-DI, Observed, Mean (SD) (Week 36, Methotrexate Baseline): 0.3 (0.49)
- HAQ-DI, Observed, Median (Week 36, Methotrexate Baseline): 0.1
- HAQ-Health, Change from Baseline, Mean (SD) (Week 36, Methotrexate Baseline): −27.7 (42.59)
- HAQ-Health, Change from Baseline, Median (Week 36, Methotrexate Baseline): −10.0
- HAQ-Health, Observed, Mean (SD) (Week 36, Methotrexate Baseline): 27.3 (35.18)
- HAQ-Health, Observed, Median (Week 36, Methotrexate Baseline): 10.0
- HAQ-Pain, Change from Baseline, Mean (SD) (Week 36, Methotrexate Baseline): −22.9 (28.41)
- HAQ-Pain, Change from Baseline, Median (Week 36, Methotrexate Baseline): −20.0
- HAQ-Pain, Observed, Mean (SD) (Week 36, Methotrexate Baseline): 21.0 (27.60)
- HAQ-Pain, Observed, Median (Week 36, Methotrexate Baseline): 10.0
- HAQ-DI, Change from Baseline, Mean (SD) (Week 36, Pegloticase Baseline): −0.5 (0.86)
- HAQ-DI, Change from Baseline, Median (Week 36, Pegloticase Baseline): −0.1
- HAQ-DI, Observed, Mean (SD) (Week 36, Pegloticase Baseline): 0.3 (0.49)
- HAQ-DI, Observed, Median (Week 36, Pegloticase Baseline): 0.1
- HAQ-Health, Change from Baseline, Mean (SD) (Week 36, Pegloticase Baseline): −16.2 (50.72)
- HAQ-Health, Change from Baseline, Median (Week 36, Pegloticase Baseline): −10.0
- HAQ-Health, Observed, Mean (SD) (Week 36, Pegloticase Baseline): 27.3 (35.18)
- HAQ-Health, Observed, Median (Week 36, Pegloticase Baseline): 10.0
- HAQ-Pain, Change from Baseline, Mean (SD) (Week 36, Pegloticase Baseline): −19.9 (20.25)
- HAQ-Pain, Change from Baseline, Median (Week 36, Pegloticase Baseline): −20.0
- HAQ-Pain, Observed, Mean (SD) (Week 36, Pegloticase Baseline): 21.0 (27.60)
- HAQ-Pain, Observed, Median (Week 36, Pegloticase Baseline): 10.0
- HAQ-DI, Change from Baseline, Mean (SD) [1]: −0.6 (0.87)
- HAQ-DI, Change from Baseline, Median [1]: −0.1
- HAQ-DI, Observed, Mean (SD) [1]: 0.4 (0.29)
- HAQ-DI, Observed, Median [1]: 0.3
- HAQ-Health, Change from Baseline, Mean (SD) [1]: −16.7 (59.23)
- HAQ-Health, Change from Baseline, Median [1]: 15.0
- HAQ-Health, Observed, Mean (SD) [1]: 60.0 (48.22)
- HAQ-Health, Observed, Median [1]: 80.0
- HAQ-Pain, Change from Baseline, Mean (SD) [1]: −42.7 (18.04)
- HAQ-Pain, Change from Baseline, Median [1]: −44.0
- HAQ-Pain, Observed, Mean (SD) [1]: 4.0 (5.20)
- HAQ-Pain, Observed, Median [1]: 1.0
- HAQ-DI, Change from Baseline, Mean (SD) [2]: −0.8 (1.08)
- HAQ-DI, Change from Baseline, Median [2]: −0.1
- HAQ-DI, Observed, Mean (SD) [2]: 0.4 (0.29)
- HAQ-DI, Observed, Median [2]: 0.3
- HAQ-Health, Change from Baseline, Mean (SD) [2]: 23.3 (54.85)
- HAQ-Health, Change from Baseline, Median [2]: 5.0
- HAQ-Health, Observed, Mean (SD) [2]: 60.0 (48.22)
- HAQ-Health, Observed, Median [2]: 80.0
- HAQ-Pain, Change from Baseline, Mean (SD) [2]: −41.0 (25.24)
- HAQ-Pain, Change from Baseline, Median [2]: −29.0
- HAQ-Pain, Observed, Mean (SD) [2]: 4.0 (5.20)
- HAQ-Pain, Observed, Median [2]: 1.0
